Active and inactive are the calls of the source.
What was measured:
[1] = target: T1, Intestinal-type alkaline phosphatase (Homo sapiens, UniProt P09923); assay: Dose Response confirmation of uHTS hits from a small molecule inhibitors of human intestinal alkaline phosphatase via a luminescent assay. [Related pubchem assays (depositor defined):AID2544, AID2574]; format: functional
[2] = target: Nonstructural protein 1 (Influenza A virus, UniProt Q194T2); format: functional, Influenza A virus (A/California/07/2009(H1N1))
[3] = target: T2, Protein RecA (Mycobacterium tuberculosis, UniProt P9WHJ3); assay: Fluorescence Cell-Free Homogeneous Dose Retest to Identify Inhibitors of RecA-Intein Splicing Activity. [Related pubchem assays (depositor defined):AID2097, AID2223, AID489010, AID492950]; format: functional
T2 sequence (P9WHJ3 whole entry): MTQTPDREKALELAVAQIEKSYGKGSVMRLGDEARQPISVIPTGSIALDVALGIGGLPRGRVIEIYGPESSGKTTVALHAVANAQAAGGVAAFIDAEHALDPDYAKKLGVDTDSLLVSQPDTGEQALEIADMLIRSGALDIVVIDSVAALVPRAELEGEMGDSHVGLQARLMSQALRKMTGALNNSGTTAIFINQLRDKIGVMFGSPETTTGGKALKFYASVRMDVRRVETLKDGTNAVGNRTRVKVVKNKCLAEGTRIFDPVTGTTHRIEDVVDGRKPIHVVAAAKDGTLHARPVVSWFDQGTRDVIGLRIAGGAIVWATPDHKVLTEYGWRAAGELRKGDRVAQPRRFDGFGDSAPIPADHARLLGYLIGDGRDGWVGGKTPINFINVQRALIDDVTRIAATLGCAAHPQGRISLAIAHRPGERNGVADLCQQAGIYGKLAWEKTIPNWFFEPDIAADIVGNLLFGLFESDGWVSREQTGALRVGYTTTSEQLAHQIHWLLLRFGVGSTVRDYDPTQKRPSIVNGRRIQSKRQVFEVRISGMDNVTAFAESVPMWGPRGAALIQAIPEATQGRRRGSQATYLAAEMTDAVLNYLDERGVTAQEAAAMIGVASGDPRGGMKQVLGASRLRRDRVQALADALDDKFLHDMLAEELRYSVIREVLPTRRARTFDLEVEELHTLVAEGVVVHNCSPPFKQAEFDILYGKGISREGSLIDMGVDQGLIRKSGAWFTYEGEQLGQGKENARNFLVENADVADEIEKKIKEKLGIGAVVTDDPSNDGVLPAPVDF

[4] = target: Intestinal-type alkaline phosphatase (Mus musculus, UniProt P24822); assay: PubChem AID 488874; format: functional
[5] = target: T3, Protein skinhead-1 (Caenorhabditis elegans, UniProt P34707); format: functional
T3 sequence (P34707 whole entry): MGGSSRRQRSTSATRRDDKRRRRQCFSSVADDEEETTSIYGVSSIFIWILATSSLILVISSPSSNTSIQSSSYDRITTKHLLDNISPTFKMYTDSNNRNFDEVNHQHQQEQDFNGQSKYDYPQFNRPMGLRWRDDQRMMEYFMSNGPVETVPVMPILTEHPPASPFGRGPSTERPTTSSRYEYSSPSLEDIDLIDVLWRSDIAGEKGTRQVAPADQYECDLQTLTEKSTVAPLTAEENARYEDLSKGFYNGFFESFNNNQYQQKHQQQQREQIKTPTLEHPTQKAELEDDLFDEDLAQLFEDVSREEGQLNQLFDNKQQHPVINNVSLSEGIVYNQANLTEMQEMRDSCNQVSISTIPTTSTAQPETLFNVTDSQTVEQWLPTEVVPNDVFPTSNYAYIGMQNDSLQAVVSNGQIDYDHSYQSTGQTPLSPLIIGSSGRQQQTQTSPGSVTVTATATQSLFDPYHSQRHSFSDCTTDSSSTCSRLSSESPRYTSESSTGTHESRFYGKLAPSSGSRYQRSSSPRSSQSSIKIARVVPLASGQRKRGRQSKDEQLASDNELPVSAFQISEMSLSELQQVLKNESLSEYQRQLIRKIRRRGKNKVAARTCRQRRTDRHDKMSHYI

[6] = target: T1, Intestinal-type alkaline phosphatase; assay: human IAP inhibitors, dose response, biochemical, luminescent, uHTS hits, set 2 (AID 488793); format: functional
[7] = target: T4, Alkaline phosphatase, tissue-nonspecific isozyme (Homo sapiens, UniProt P05186); assay: inhibition of tissue-nonspecific alkaline phosphatase – biochemical, dose response (AID 488882); format: functional
T4 sequence (P05186 whole entry): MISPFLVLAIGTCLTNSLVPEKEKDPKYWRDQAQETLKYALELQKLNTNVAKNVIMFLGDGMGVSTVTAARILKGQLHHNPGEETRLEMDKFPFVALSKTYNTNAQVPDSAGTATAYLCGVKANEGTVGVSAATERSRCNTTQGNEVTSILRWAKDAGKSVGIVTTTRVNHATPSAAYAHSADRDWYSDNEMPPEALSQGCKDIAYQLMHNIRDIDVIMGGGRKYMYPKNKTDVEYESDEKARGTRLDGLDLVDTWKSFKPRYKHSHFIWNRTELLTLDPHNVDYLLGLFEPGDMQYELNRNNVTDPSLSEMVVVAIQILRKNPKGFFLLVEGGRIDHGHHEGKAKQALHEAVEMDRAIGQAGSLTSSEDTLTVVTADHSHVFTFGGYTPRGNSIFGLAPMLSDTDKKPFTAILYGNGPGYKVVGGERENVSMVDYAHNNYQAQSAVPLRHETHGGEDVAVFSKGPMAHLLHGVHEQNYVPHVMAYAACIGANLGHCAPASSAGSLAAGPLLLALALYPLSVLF

[8] = growth induction of Burl-1 ts yeast mutant, dose response, counter-screen for SUMOylation pathway inhibitor project, whole organism, S. cerevisiae, luminescence (AID 463199); format: functional
[9] = target: SUMO E1/E2 (Homo sapiens, UniProt P63279+Q9UBE0+Q9UBT2); assay: SAR analysis of SUMOylation using HTRF in an in-Vitro dose response assay. [Related pubchem assays (depositor defined):AID2006, AID2011, AID2018, AID2069, AID2658]; format: functional
[10] = target: T5, Voltage-gated N-type calcium channel alpha-1B subunit/Amyloid beta A4 precursor protein-binding family A member 1 (Homo sapiens, UniProt Q00975+Q02410); assay: disruptors of Mint-PDZ/N-type channel peptide interaction – biochemical, HTRF, SAR follow-up (AID 2489); format: functional
[11] = target: T5, Voltage-gated N-type calcium channel alpha-1B subunit/Amyloid beta A4 precursor protein-binding family A member 1; assay: disruptors of Mint-PDZ/N-type channel peptide interaction – biochemical, HTRF, set 2, SAR follow-up (AID 434980); format: functional
[12] = target: Sphingosine 1-phosphate receptor 2 (Homo sapiens, UniProt O95136); assay: Late stage counterscreen assay for S1P4 antagonists: Fluorescence dose response cell-based screening assay for antagonists of the Sphingosine 1-Phosphate Receptor 2 (S1P2). [Related pubchem assays (depositor defined):AID1510, AID1524, AID1692, AID1853, AID2332, AID489009, AID489017]; format: functional
[13] = target: Sphingosine 1-phosphate receptor 5 (Homo sapiens, UniProt Q9H228); assay: Late stage counterscreen assay for S1P4 antagonists: Fluorescence dose response cell-based screening assay for antagonists of the Sphingosine 1-Phosphate Receptor 5 (S1P5). [Related pubchem assays (depositor defined):AID1510, AID1524, AID1692, AID1853, AID2332, AID489009, AID489017]; format: functional
[14] = target: Sphingosine 1-phosphate receptor 1 (Homo sapiens, UniProt P21453); assay: Late stage counterscreen assay for S1P4 antagonists: Fluorescence dose response cell-based screening assay for antagonists of the Sphingosine 1-Phosphate Receptor 1 (S1P1). [Related pubchem assays (depositor defined):AID1510, AID1524, AID1692, AID1853, AID2332, AID489009, AID489017]; format: functional
[15] = target: Sphingosine 1-phosphate receptor 3 (Homo sapiens, UniProt Q99500); assay: Late stage counterscreen assay for S1P4 antagonists: Fluorescence dose response cell-based screening assay for antagonists of the Sphingosine 1-Phosphate Receptor 3 (S1P3). [Related pubchem assays (depositor defined):AID1510, AID1524, AID1692, AID1853, AID2332, AID489009, AID489017]; format: functional
[16] = target: Cytochrome P450 2D6 (Homo sapiens, UniProt P10635);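 note: CYP2D6 member of a cytochrome P450 panel assay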
[17] = target: Cytochrome P450 2C9 (Homo sapiens, UniProt P11712)
[18] = target: T6, Tyrosine-protein phosphatase non-receptor type 7 (Homo sapiens, UniProt P35236); assay: SAR analysis of chemical inhibitors of HePTP using a Fluorescent assay - Set 2. [Related pubchem assays (depositor defined):AID1059, AID1077, AID1661, AID2085, AID521]; format: functional
T6 sequence (P35236 whole entry): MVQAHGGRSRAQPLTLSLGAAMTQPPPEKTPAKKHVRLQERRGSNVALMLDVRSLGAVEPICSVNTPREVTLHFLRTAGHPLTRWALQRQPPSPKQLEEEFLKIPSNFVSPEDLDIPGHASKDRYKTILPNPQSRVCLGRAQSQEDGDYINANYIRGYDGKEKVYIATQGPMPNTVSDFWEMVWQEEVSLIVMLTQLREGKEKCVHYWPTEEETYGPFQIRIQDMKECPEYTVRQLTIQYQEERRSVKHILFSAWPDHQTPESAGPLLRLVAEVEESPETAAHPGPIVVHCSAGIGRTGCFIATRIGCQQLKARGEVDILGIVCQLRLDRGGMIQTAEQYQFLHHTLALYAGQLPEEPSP

[19] = target: T6, Tyrosine-protein phosphatase non-receptor type 7; assay: redox-dependent HePTP inhibition, mechanism study, biochemical, fluorescence (AID 2068); format: functional
[20] = target: T7, Dual specificity protein phosphatase 6 (Rattus norvegicus, UniProt Q64346); assay: SAR analysis of inhibitors of MKP-3 - Set 2. [Related pubchem assays (depositor defined):AID1055, AID1661, AID425, AID553, AID566]; format: functional
T7 sequence (Q64346 whole entry): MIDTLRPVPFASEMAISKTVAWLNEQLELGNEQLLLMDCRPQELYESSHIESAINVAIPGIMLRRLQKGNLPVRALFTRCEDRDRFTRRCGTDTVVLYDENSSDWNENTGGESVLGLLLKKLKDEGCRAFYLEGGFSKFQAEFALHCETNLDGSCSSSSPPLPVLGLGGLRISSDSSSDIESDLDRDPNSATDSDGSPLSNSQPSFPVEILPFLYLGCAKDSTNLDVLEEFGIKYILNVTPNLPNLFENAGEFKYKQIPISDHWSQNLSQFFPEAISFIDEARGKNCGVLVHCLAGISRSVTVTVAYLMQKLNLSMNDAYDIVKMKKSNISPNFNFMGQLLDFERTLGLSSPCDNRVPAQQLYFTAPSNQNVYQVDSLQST

[21] = target: T8, Dual specificity protein phosphatase 3 (Homo sapiens, UniProt P51452); assay: VHR1 phosphatase inhibitors, biochemical (AID 1878)
[22] = target: T8, Dual specificity protein phosphatase 3; assay: SAR VHR1 Fluorescent Assay for In Vitro dose response studies. [Related pubchem assays (depositor defined):AID1654, AID1661, AID1878, AID1992, AID2004, AID2070, AID2085]; format: functional
[23] = target: T8, Dual specificity protein phosphatase 3; assay: VHR1 phosphatase inhibitors, primary screen, biochemical, absorbance, uHTS (AID 1654)
[24] = target: T8, Dual specificity protein phosphatase 3; assay: SAR VHR1 Fluorescent Assay for In Vitro dose response studies Set 2. [Related pubchem assays (depositor defined):AID1654, AID1661, AID1878]; format: functional
[25] = target: T8, Dual specificity protein phosphatase 3; assay: SAR VHR1 absorbance Assay for In Vitro dose response studies. [Related pubchem assays (depositor defined):AID1654, AID1661, AID1878, AID1992, AID2004]
[26] = target: T7, Dual specificity protein phosphatase 6; format: functional
[27] = target: T7, Dual specificity protein phosphatase 6; assay: MKP-3 phosphatase inhibitors, primary screen, biochemical, rat enzyme, in vitro (AID 425)
[28] = target: T6, Tyrosine-protein phosphatase non-receptor type 7; assay: HePTP (PTPN7) phosphatase inhibitor potency, SAR follow-up, biochemical, set 2 (AID 449736); format: functional

T8 sequence (P51452 whole entry): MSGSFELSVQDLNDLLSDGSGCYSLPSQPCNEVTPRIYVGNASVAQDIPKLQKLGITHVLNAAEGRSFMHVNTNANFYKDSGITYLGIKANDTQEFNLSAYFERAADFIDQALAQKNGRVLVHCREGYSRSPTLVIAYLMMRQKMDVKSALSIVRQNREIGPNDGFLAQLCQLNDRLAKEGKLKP
T5 sequence (Q00975 whole entry): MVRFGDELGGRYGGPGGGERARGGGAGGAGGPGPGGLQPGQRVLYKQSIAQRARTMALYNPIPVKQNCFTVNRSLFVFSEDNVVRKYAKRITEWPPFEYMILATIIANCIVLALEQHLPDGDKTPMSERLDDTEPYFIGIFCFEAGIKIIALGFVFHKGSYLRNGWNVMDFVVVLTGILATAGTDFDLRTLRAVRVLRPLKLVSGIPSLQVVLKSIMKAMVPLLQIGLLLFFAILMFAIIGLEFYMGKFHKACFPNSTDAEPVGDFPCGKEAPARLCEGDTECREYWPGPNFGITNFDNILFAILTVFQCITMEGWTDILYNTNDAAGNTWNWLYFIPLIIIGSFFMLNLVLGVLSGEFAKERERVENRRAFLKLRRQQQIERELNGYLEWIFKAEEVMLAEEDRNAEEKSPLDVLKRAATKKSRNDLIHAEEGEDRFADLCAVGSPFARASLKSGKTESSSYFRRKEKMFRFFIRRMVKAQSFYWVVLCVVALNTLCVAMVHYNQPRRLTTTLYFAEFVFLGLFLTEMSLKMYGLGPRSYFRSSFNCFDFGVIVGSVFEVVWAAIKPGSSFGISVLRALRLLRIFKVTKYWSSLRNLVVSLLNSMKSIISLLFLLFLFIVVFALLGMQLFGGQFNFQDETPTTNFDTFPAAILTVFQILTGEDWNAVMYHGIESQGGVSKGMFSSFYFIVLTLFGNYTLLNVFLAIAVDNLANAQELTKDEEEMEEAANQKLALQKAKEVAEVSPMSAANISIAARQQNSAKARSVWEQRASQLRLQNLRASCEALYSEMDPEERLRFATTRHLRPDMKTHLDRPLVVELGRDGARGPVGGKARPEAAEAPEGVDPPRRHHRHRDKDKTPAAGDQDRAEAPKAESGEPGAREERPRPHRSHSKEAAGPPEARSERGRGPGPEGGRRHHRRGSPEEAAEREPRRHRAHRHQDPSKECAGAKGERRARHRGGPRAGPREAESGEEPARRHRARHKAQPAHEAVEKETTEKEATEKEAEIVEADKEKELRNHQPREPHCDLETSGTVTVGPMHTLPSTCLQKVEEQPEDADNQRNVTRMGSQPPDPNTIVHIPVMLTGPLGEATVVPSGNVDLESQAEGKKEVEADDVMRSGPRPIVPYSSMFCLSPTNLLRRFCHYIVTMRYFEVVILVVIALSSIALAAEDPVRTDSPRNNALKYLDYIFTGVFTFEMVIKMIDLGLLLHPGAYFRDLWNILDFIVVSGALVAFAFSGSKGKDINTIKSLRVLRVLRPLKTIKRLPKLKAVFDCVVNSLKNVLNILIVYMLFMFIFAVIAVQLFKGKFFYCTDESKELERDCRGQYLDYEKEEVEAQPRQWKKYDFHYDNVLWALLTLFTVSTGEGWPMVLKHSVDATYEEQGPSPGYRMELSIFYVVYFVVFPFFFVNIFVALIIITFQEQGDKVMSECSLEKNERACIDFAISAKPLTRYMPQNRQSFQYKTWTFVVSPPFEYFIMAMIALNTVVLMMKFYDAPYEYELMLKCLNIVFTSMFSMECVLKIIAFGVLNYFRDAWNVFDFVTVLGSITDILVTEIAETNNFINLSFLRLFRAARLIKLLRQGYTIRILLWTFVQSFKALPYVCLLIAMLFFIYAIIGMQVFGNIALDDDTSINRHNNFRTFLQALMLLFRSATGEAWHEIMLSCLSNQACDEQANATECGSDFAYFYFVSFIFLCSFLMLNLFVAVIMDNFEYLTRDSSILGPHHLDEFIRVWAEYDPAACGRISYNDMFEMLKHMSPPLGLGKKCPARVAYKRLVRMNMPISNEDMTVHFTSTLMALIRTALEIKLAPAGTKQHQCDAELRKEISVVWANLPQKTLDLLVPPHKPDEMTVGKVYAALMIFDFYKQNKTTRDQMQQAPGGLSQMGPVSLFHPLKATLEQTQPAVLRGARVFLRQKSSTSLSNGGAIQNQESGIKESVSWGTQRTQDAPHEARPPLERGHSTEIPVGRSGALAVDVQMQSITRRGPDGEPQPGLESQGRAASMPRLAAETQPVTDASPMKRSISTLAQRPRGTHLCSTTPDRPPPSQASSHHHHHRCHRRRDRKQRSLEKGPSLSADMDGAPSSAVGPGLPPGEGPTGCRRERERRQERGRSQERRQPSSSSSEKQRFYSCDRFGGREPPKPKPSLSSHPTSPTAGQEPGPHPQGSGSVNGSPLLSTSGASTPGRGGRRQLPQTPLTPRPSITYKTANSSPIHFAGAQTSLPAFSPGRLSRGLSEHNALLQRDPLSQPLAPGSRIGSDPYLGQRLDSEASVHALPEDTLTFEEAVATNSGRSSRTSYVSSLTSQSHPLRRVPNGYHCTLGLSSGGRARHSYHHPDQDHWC
T5 sequence (Q02410 whole entry): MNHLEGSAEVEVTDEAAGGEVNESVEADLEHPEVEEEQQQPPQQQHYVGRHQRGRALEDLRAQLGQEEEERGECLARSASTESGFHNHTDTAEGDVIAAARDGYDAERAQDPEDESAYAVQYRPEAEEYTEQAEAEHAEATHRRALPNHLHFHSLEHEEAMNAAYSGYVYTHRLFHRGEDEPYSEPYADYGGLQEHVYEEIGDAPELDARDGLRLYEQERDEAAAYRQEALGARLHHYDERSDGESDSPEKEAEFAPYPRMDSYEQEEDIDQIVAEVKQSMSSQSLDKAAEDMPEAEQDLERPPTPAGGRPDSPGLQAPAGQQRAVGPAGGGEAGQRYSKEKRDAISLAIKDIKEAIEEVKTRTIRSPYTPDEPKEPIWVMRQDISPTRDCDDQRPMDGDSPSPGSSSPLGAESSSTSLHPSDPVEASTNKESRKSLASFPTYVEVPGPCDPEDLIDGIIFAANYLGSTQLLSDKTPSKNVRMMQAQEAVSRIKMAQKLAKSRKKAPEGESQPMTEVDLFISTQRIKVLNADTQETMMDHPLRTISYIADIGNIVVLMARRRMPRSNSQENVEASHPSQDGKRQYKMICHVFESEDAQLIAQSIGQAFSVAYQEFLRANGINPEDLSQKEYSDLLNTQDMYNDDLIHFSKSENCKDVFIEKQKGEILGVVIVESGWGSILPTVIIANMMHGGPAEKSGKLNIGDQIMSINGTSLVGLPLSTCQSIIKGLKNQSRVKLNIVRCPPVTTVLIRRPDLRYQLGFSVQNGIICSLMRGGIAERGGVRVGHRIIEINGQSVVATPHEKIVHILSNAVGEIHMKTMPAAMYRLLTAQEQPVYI
T1 sequence (P09923 whole entry): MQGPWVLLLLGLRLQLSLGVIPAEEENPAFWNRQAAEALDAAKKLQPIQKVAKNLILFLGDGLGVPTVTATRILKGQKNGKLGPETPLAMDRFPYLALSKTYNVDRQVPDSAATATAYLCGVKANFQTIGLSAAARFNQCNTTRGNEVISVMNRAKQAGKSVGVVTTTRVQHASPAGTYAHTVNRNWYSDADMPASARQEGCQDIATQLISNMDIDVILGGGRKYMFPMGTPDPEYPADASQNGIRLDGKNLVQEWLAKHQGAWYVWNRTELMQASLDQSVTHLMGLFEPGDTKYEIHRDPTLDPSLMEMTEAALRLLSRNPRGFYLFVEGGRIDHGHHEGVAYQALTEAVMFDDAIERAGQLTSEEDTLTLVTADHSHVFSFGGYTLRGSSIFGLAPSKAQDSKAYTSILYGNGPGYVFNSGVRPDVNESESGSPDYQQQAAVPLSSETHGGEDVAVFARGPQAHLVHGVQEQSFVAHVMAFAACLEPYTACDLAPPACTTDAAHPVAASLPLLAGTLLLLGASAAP
Sequence of Sphingosine 1-phosphate receptor 3 (Q99500 whole entry): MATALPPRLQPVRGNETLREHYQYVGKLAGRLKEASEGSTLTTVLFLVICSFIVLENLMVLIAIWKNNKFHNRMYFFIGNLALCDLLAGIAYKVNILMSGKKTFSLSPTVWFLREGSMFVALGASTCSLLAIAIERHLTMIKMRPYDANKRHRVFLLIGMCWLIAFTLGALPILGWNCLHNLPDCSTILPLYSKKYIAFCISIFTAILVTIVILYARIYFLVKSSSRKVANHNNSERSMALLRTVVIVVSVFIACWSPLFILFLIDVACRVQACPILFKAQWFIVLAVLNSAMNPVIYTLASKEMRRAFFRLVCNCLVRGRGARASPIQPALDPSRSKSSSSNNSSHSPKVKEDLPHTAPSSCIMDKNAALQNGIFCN
Sequence of Sphingosine 1-phosphate receptor 5 (Q9H228 whole entry): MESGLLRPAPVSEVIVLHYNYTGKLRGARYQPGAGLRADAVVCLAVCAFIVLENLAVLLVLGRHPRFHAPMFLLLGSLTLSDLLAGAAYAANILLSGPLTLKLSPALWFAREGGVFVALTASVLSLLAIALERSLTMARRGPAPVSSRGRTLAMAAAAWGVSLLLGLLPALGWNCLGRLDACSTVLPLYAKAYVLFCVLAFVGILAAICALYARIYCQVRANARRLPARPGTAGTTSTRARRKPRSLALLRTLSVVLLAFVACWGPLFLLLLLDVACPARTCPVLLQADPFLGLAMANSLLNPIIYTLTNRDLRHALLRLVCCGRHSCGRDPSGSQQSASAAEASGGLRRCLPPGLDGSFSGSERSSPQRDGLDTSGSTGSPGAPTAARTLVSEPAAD
Sequence of Sphingosine 1-phosphate receptor 1 (P21453 whole entry): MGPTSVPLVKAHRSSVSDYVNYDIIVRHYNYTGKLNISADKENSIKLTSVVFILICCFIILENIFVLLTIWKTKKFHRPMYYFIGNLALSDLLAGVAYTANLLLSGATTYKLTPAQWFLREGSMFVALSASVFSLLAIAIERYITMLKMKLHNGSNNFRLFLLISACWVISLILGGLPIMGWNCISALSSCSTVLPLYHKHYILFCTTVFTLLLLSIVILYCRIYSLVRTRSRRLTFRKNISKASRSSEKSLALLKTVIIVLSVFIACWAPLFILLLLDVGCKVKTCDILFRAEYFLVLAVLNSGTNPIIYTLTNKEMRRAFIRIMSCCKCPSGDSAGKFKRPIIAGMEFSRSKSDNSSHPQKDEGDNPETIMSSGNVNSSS

## CC1=NN(Cc2ccccc2)C(=O)/C1=C\c1ccc(N(C)C)cc1
[1]
  IC50: 16.8 µM (inactive)
[2]
  IC50: 32.3 µM (active)
[3]
  EC50: > 380 µM (inactive)
[4]
  IC50: 35.1 µM (active)
[5]
  IC50: > 100 µM (inactive)
[6]
  IC50: 39.4 µM (active)
[7]
  IC50: 46.7 µM (active)

## O=C1CC(c2cccc(Br)c2)C2=C(COC2=O)N1 (stereo not drawn)
[8]
  AC50: 85 µM (active)

## Cc1ccc(CNC(=O)COC(=O)c2cc(-c3ccco3)nc3ccccc23)cc1
[9]
  IC50: 6.5 µM (active)
[10]
  IC50: 18.1 µM (active)
[11]
  IC50: 12.1 µM (active)

## Cc1cscc1-c1ccc(C(=O)Nc2c(C)cccc2C)o1
[12]
  IC50: > 25 µM (inactive)
[13]
  IC50: > 25 µM (inactive)
[14]
  IC50: > 25 µM (inactive)
[15]
  IC50: > 25 µM (inactive)

## Cc1nn(-c2ccccc2)c(Cl)c1/C=N/NC(=O)c1ccco1
[16]
  AC50: inconclusive
[17]
  AC50: 22.4 µM (inconclusive)

## NS(=O)(=O)c1ccc(NC(=S)NC2CCCCC2)cc1
[18]
  IC50: 1.27 µM (active)
[19]
  IC50: 0.025 µM (active)
[20]
  IC50: > 100 µM (inactive)
[21]
  IC50: 3.49 µM (active)
[22]
  IC50: > 99 µM (inactive)
[23]
  IC50: 2.15 µM (active)
[24]
  IC50: 0.143 µM (active)
[25]
  IC50: 0.704 µM (active)
[26]
  IC50: > 99 µM (inactive)
[27]
  IC50: > 158 µM (not active)
[28]
  IC50: > 100 µM (inactive)
